Results reported in PubChem BioAssay (NCI).
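The compound was tested at five concentrations on cells cultured in 96-well plates, with a 48-hour exposure period. TGI marks complete inhibition of growth.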 Where a SMILES comes first, the peptide text is derived from it. [ ]: non-standard residue; d: D form. The star is where a group is joined. ξ: configuration not given here. ξD = NC(CC(=O)O)C(=O)O; Boc = CC(C)(C)OC(=O)*; Aib = CC(C)(N)C(=O)O; OBn = c1ccc(CO*)cc1

Experiments:
Test in all cases: NCI anticancer screen, dose series, 48 h
[1] = tested on: A498 renal
[2] = tested on: CAKI-1 renal
[3] = tested on: CCRF-CEM leukemia
[4] = tested on: HCT-116 colon
[5] = tested on: HCT-15 colon
[6] = tested on: NCI-H23 lung
[7] = tested on: OVCAR-3 ovarian
[8] = tested on: SF-268 CNS
[9] = tested on: SF-295 CNS
[10] = tested on: SK-MEL-2 melanoma
[11] = tested on: SNB-19 CNS
[12] = tested on: SW-620 colon
[13] = tested on: UACC-62 melanoma
[14] = tested on: UO-31 renal
[15] = tested on: K-562 leukemia
[16] = tested on: OVCAR-4 ovarian
[17] = tested on: HCC-2998 colon

## CCOC(=O)c1cc(=O)c2cccc3c2n1CCS3
[1]
  TGI: > 100 µM
[2]
  TGI: > 100 µM
[3]
  TGI: > 100 µM
[4]
  TGI: > 100 µM
[5]
  TGI: > 100 µM
[6]
  TGI: > 100 µM
[7]
  TGI: > 100 µM
[8]
  TGI: > 100 µM
[9]
  TGI: > 100 µM
[10]
  TGI: > 100 µM
[11]
  TGI: > 100 µM
[12]
  TGI: > 100 µM
[13]
  TGI: > 100 µM
[14]
  TGI: > 100 µM

## N#CC(O)CCOCc1ccccc1 (centres undefined)
[1]
  TGI: > 100 µM
[2]
  TGI: 35.6 µM
[3]
  TGI: > 100 µM
[4]
  TGI: > 100 µM
[5]
  TGI: > 100 µM
[15]
  TGI: > 100 µM
[6]
  TGI: > 100 µM
[7]
  TGI: > 100 µM
[16]
  TGI: > 100 µM
[8]
  TGI: > 100 µM
[9]
  TGI: > 100 µM
[10]
  TGI: > 100 µM
[11]
  TGI: > 100 µM
[12]
  TGI: > 100 µM
[13]
  TGI: > 100 µM
[14]
  TGI: > 100 µM

## COc1c(Sc2c(SCSc3cnc4ccccc4c3Sc3cnc4ccccc4c3OC)cnc3ccccc23)cnc2ccccc12
[2]
  TGI: > 100 µM
[3]
  TGI: > 100 µM
[17]
  TGI: > 100 µM
[4]
  TGI: > 100 µM
[5]
  TGI: > 100 µM
[6]
  TGI: > 100 µM
[7]
  TGI: > 100 µM
[16]
  TGI: > 100 µM
[8]
  TGI: > 100 µM
[9]
  TGI: > 100 µM
[10]
  TGI: > 100 µM
[11]
  TGI: 77.3 µM
[12]
  TGI: > 100 µM
[13]
  TGI: > 100 µM
[14]
  TGI: > 100 µM

## CCN(CC)CCCNc1ccc([N+](=O)[O-])c2nc3ccccc3c(N)c12
[1]
  TGI: 9.95 µM
[2]
  TGI: > 10 µM
[3]
  TGI: 2.91 µM
[4]
  TGI: 1.48 µM
[5]
  TGI: 2.55 µM
[15]
  TGI: 2.35 µM
[6]
  TGI: 2.76 µM
[7]
  TGI: 8.75 µM
[16]
  TGI: 1.94 µM
[8]
  TGI: > 10 µM
[9]
  TGI: 1.87 µM
[10]
  TGI: 2.53 µM
[11]
  TGI: 5.5 µM
[12]
  TGI: 2.04 µM
[13]
  TGI: > 10 µM
[14]
  TGI: > 10 µM

## Fc1cc2nc3n(c2cc1F)C(c1c(F)cccc1F)SC3 (centres undefined)
[1]
  TGI: 98.3 µM
[2]
  TGI: > 100 µM
[17]
  TGI: > 100 µM
[4]
  TGI: 54.1 µM
[5]
  TGI: > 100 µM
[6]
  TGI: > 100 µM
[7]
  TGI: > 100 µM
[16]
  TGI: > 100 µM
[8]
  TGI: > 100 µM
[9]
  TGI: > 100 µM
[10]
  TGI: > 100 µM
[11]
  TGI: > 100 µM
[12]
  TGI: > 100 µM
[13]
  TGI: > 100 µM
[14]
  TGI: > 100 µM

## CC(C)(C)OC(=O)NC(CC(=O)OCc1ccccc1)C(=O)NC(C)(C)C(N)=O (centres undefined) (Boc-[ξD](OBn)-[Aib]-NH2)
[1]
  TGI: > 100 µM
[2]
  TGI: > 100 µM
[3]
  TGI: > 100 µM
[4]
  TGI: > 100 µM
[5]
  TGI: > 100 µM
[15]
  TGI: > 100 µM
[6]
  TGI: > 100 µM
[7]
  TGI: > 100 µM
[16]
  TGI: > 100 µM
[8]
  TGI: > 100 µM
[9]
  TGI: > 100 µM
[10]
  TGI: > 100 µM
[11]
  TGI: > 100 µM
[12]
  TGI: > 100 µM
[13]
  TGI: > 100 µM
[14]
  TGI: > 100 µM

## CCCC(=O)OCC1OC(n2cc(F)c(=O)[nH]c2=O)C(F)C1O (centres undefined)
[3]
  TGI: > 100 µM
[17]
  TGI: > 100 µM
[4]
  TGI: > 100 µM
[5]
  TGI: > 100 µM
[15]
  TGI: > 100 µM
[6]
  TGI: > 100 µM
[7]
  TGI: > 100 µM
[16]
  TGI: > 100 µM
[8]
  TGI: > 100 µM
[9]
  TGI: > 100 µM
[10]
  TGI: > 100 µM
[11]
  TGI: > 100 µM
[12]
  TGI: > 100 µM
[13]
  TGI: > 100 µM
[14]
  TGI: > 100 µM

## N#CC(NNC(=O)Cc1ccccc1)c1ccc([N+](=O)[O-])cc1 (centres undefined)
[3]
  TGI: > 100 µM
[4]
  TGI: > 100 µM
[5]
  TGI: > 100 µM
[15]
  TGI: > 100 µM
[6]
  TGI: > 100 µM
[16]
  TGI: > 100 µM
[8]
  TGI: > 100 µM
[9]
  TGI: > 100 µM
[10]
  TGI: > 100 µM
[12]
  TGI: > 100 µM
[13]
  TGI: > 100 µM
[14]
  TGI: > 100 µM

## Cc1n[nH]c(=O)n1C1CC1
[2]
  TGI: > 100 µM
[3]
  TGI: > 100 µM
[17]
  TGI: > 100 µM
[4]
  TGI: > 100 µM
[5]
  TGI: > 100 µM
[15]
  TGI: > 100 µM
[6]
  TGI: > 100 µM
[7]
  TGI: > 100 µM
[16]
  TGI: > 100 µM
[8]
  TGI: > 100 µM
[9]
  TGI: > 100 µM
[11]
  TGI: > 100 µM
[12]
  TGI: > 100 µM
[13]
  TGI: > 100 µM
[14]
  TGI: > 100 µM

## COc1cc(/C=N/NC(=O)c2c(Cl)c(Cl)c(Cl)c(Cl)c2-c2nc3ccc(C(=O)c4ccccc4)cc3[nH]2)ccc1O
[2]
  TGI: > 100 µM
[3]
  TGI: 81.6 µM
[4]
  TGI: > 100 µM
[5]
  TGI: > 100 µM
[15]
  TGI: > 100 µM
[6]
  TGI: > 100 µM
[7]
  TGI: > 100 µM
[16]
  TGI: > 100 µM
[8]
  TGI: > 100 µM
[9]
  TGI: > 100 µM
[10]
  TGI: > 100 µM
[11]
  TGI: > 100 µM
[12]
  TGI: > 100 µM
[14]
  TGI: > 100 µM

## CC(C(=O)NCNC(=O)c1ccccc1)C(=O)Nc1ccccc1 (centres undefined)
[2]
  TGI: > 100 µM
[3]
  TGI: > 100 µM
[4]
  TGI: > 100 µM
[5]
  TGI: > 100 µM
[6]
  TGI: > 100 µM
[8]
  TGI: > 100 µM
[9]
  TGI: > 100 µM
[10]
  TGI: > 100 µM
[11]
  TGI: > 100 µM
[12]
  TGI: > 100 µM
[13]
  TGI: > 100 µM
[14]
  TGI: > 100 µM

## CCOC(=O)c1c(NC(=S)Nc2ccccc2)sc2c1CCN(C)C2
[1]
  TGI: > 100 µM
[2]
  TGI: > 100 µM
[3]
  TGI: > 100 µM
[4]
  TGI: > 100 µM
[5]
  TGI: > 100 µM
[15]
  TGI: > 100 µM
[6]
  TGI: > 100 µM
[7]
  TGI: > 100 µM
[8]
  TGI: > 100 µM
[9]
  TGI: > 100 µM
[10]
  TGI: > 100 µM
[11]
  TGI: > 100 µM
[13]
  TGI: > 100 µM
[14]
  TGI: > 100 µM

## Cc1cc(N(CCC#N)CCC#N)ccc1/C=C1N=C(/C=C\c2ccccc2)N(NC(=O)CC(=O)Nc2ccccc2Cl)C\1=O
[1]
  TGI: > 100 µM
[2]
  TGI: > 100 µM
[3]
  TGI: > 100 µM
[4]
  TGI: > 100 µM
[5]
  TGI: > 100 µM
[15]
  TGI: > 100 µM
[6]
  TGI: > 100 µM
[7]
  TGI: > 100 µM
[16]
  TGI: > 100 µM
[8]
  TGI: > 100 µM
[9]
  TGI: > 100 µM
[10]
  TGI: > 100 µM
[11]
  TGI: > 100 µM
[12]
  TGI: > 100 µM
[13]
  TGI: > 100 µM
[14]
  TGI: > 100 µM

## CCC1C(NC(=O)OC)C(=O)N1[C@@H](C)c1ccccc1 (some centres undefined)
[1]
  TGI: > 100 µM
[2]
  TGI: > 100 µM
[17]
  TGI: > 100 µM
[4]
  TGI: > 100 µM
[5]
  TGI: > 100 µM
[15]
  TGI: > 100 µM
[6]
  TGI: > 100 µM
[7]
  TGI: > 100 µM
[16]
  TGI: > 100 µM
[8]
  TGI: > 100 µM
[9]
  TGI: > 100 µM
[10]
  TGI: > 100 µM
[11]
  TGI: > 100 µM
[12]
  TGI: > 100 µM
[13]
  TGI: > 100 µM
[14]
  TGI: > 100 µM

## COc1cc(/C=C2\CCC(C)C3=C2N=c2s/c(=C/c4ccc(Cl)cc4)c(=O)n2C3c2cc(OC)c(OC)c(OC)c2)cc(OC)c1OC (centres undefined)
[1]
  TGI: > 100 µM
[2]
  TGI: > 100 µM
[3]
  TGI: > 100 µM
[4]
  TGI: > 100 µM
[5]
  TGI: > 100 µM
[15]
  TGI: > 100 µM
[16]
  TGI: > 100 µM
[8]
  TGI: > 100 µM
[10]
  TGI: > 100 µM
[11]
  TGI: > 100 µM
[12]
  TGI: > 100 µM
[13]
  TGI: > 100 µM
[14]
  TGI: > 100 µM
